Test results from US11325899B2, “Benzofurane and benzothiophene derivatives as PGE2 receptor modulators” (IDORSIA PHARMACEUTICALS LTD, priority 2017, dated 2022).

These compounds were tested against T1, EP2 receptor (Homo sapiens, UniProt P43116) (assay: hEP2 cAMP assay (SF295 glioblastoma cells, HTRF cAMP, PGE2 stimulation)). Settings: antagonistic activity.
T1 construct: SF295 glioblastoma cells express high endogenous EP2 and no EP4; host or cells: SF295 glioblastoma cells
T1 sequence (P43116 whole entry): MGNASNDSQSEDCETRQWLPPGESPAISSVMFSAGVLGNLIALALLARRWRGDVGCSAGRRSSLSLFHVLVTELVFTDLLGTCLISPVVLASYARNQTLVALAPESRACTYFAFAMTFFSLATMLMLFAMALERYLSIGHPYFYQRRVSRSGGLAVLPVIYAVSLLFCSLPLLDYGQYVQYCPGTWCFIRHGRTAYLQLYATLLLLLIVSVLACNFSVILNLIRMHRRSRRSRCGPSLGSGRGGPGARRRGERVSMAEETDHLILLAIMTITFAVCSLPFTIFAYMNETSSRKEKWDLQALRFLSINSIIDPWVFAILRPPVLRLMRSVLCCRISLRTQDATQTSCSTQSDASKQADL
Type: cell-based
How it was run: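 HTRF cAMP readout gave % cAMP relative to DMSO, fitted to IC50 with duplicate points. Compounds were preincubated 45 min at room temperature with EP2-expressing, EP4-negative SF295 cells in IBMX (2 mM)-containing buffer before a 30 min challenge with PGE2 at 75 nM final, its EC80.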
Work on `CCCOc1cc(-c2cc(NCCc3c(C)sc4c(C)cc(F)cc34)ncn2)ccc1C(=O)O` [Example 100, 4-{6-[2-(5-Fluoro-2,7-dimethyl-benzo[b]thiophen-3-yl)-ethylamino]-pyrimidin-4-yl}-2-propoxy-benzoic acid] yielded an IC50 of 0.02 µM.
Work on `CCCOc1cc(-c2cc(NCCc3c(C)sc4c(OC)ccc(Cl)c34)ncn2)ccc1C(=O)O` [Example 101, 4-{6-[2-(4-Chloro-7-methoxy-2-methyl-benzo[b]thiophen-3-yl)-ethylamino]-pyrimidin-4-yl}-2-propoxy-benzoic acid] yielded an IC50 of 0.085 µM.
`CCCOc1cc(-c2cc(NCCc3c(C)sc4c(Cl)ccc(Cl)c34)ncn2)ccc1C(=O)O` [Example 102, 4-{6-[2-(4,7-Dichloro-2-methyl-benzo[b]thiophen-3-yl)-ethylamino]-pyrimidin-4-yl}-2-propoxy-benzoic acid] showed an IC50 of 0.054 µM.
For `CCOc1cc(-c2cc(NCCc3c(C)sc4c(C)ccc(F)c34)ncn2)cc(C)c1C(=O)O` [Example 103, 2-Ethoxy-4-{6-[2-(4-fluoro-2,7-dimethyl-benzo[b]thiophen-3-yl)-ethylamino]-pyrimidin-4-yl}-6-methyl-benzoic acid], the IC50 was 0.111 µM.
With `CCOc1cc(-c2cc(NCCc3c(C#N)sc4c(C)cc(F)cc34)ncn2)ccc1CC(=O)O` [Example 104, (4-{6-[2-(2-Cyano-5-fluoro-7-methyl-benzo[b]thiophen-3-yl)-ethylamino]-pyrimidin-4-yl}-2-ethoxy-phenyl)-acetic acid] the IC50 was 0.048 µM.
With `CCOc1cc(-c2cc(NCCc3c(C)sc4c(OC)ccc(F)c34)ncn2)ccc1CC(=O)O` [Example 105, (2-Ethoxy-4-{6-[2-(4-fluoro-7-methoxy-2-methyl-benzo[b]thiophen-3-yl)-ethylamino]-pyrimidin-4-yl}-phenyl)-acetic acid] the IC50 was 0.157 µM.
Work on `CCOc1cc(-c2cc(NCCc3c(C)sc4c(C)ccc(F)c34)ncn2)ccc1CC(=O)O` [Example 107, (2-Ethoxy-4-{6-[2-(4-fluoro-2,7-dimethyl-benzo[b]thiophen-3-yl)-ethylamino]-pyrimidin-4-yl}-phenyl)-acetic acid] yielded an IC50 of 0.249 µM.
`CCOc1cc(-c2cc(NCCc3c(C)sc4c(C)cccc34)ncn2)ccc1CC(=O)O` [Example 109, (4-{6-[2-(2,7-Dimethyl-benzo[b]thiophen-3-yl)-ethylamino]-pyrimidin-4-yl}-2-ethoxy-phenyl)-acetic acid] showed an IC50 of 0.095 µM.
`CCOc1cc(-c2cc(NCCc3c(C)sc4c(C)cc(F)cc34)ncn2)ccc1CC(=O)O` [Example 110, (2-Ethoxy-4-{6-[2-(5-fluoro-2,7-dimethyl-benzo[b]thiophen-3-yl)-ethylamino]-pyrimidin-4-yl}-phenyl)-acetic acid] gave an IC50 of 0.16 µM.
`CCOc1cc(-c2cc(NCCc3c(C)sc4c(C)c(F)ccc34)ncn2)ccc1CC(=O)O` [Example 112, (2-Ethoxy-4-{6-[2-(6-fluoro-2,7-dimethyl-benzo[b]thiophen-3-yl)-ethylamino]-pyrimidin-4-yl}-phenyl)-acetic acid] was tested, and the IC50 was 0.188 µM.
Compound `Cc1sc2c(C)cc(F)cc2c1CCNc1cc(-c2ccc(C(=O)O)c(OC(F)F)c2)ncn1` [Example 115, 2-Difluoromethoxy-4-{6-[2-(5-fluoro-2,7-dimethyl-benzo[b]thiophen-3-yl)-ethylamino]-pyrimidin-4-yl}-benzoic acid] has an IC50 of 0.008 µM.
For `COc1ccc(Cl)c2c(CCNc3cc(-c4ccc(C(=O)O)c(OC(F)F)c4)ncn3)c(C)sc12` [Example 116, 4-{6-[2-(4-Chloro-7-methoxy-2-methyl-benzo[b]thiophen-3-yl)-ethylamino]-pyrimidin-4-yl}-2-difluoromethoxy-benzoic acid], the IC50 was 0.035 µM.
`CCOc1cc(-c2cc(NCCc3c(C)sc4c(OC)ccc(F)c34)ncn2)ccc1OCC(=O)O` [Example 117, (2-Ethoxy-4-{6-[2-(4-fluoro-7-methoxy-2-methyl-benzo[b]thiophen-3-yl)-ethylamino]-pyrimidin-4-yl}-phenoxy)-acetic acid] showed an IC50 of 0.101 µM.
For `CCOc1cc(-c2cc(NCCc3c(C)sc4c(C)ccc(F)c34)ncn2)ccc1OCC(=O)O` [Example 118, (2-Ethoxy-4-{6-[2-(4-fluoro-2,7-dimethyl-benzo[b]thiophen-3-yl)-ethylamino]-pyrimidin-4-yl}-phenoxy)-acetic acid], the IC50 was 0.112 µM.
Compound `CCOc1cc(-c2cc(NCCc3c(C)sc4c(C)c(F)ccc34)ncn2)ccc1OCC(=O)O` [Example 119, (2-Ethoxy-4-{6-[2-(6-fluoro-2,7-dimethyl-benzo[b]thiophen-3-yl)-ethylamino]-pyrimidin-4-yl}-phenoxy)-acetic acid] has an IC50 of 0.119 µM.
Work on `CCOc1cc(-c2cc(NCCc3c(C)oc4c(Cl)cccc34)ncn2)ccc1OCC(=O)O` [Example 120, (4-{6-[2-(7-Chloro-2-methyl-benzofuran-3-yl)-ethylamino]-pyrimidin-4-yl}-2-ethoxy-phenoxy)-acetic acid] yielded an IC50 of 0.059 µM.
`CCOc1cc(-c2cc(NCCc3c(C)oc4c(OC)cc(Cl)cc34)ncn2)ccc1OCC(=O)O` [Example 121, (4-{6-[2-(5-Chloro-7-methoxy-2-methyl-benzofuran-3-yl)-ethylamino]-pyrimidin-4-yl}-2-ethoxy-phenoxy)-acetic acid] was tested, and the IC50 was 0.155 µM.
`CCOc1cc(-c2cc(NCCc3c(C)sc4c(C)cccc34)ncn2)ccc1OCC(=O)O` [Example 122, (4-{6-[2-(2,7-Dimethyl-benzo[b]thiophen-3-yl)-ethylamino]-pyrimidin-4-yl}-2-ethoxy-phenoxy)-acetic acid] showed an IC50 of 0.04 µM.
With `CCCCOc1cc(-c2cc(NCCc3c(C)sc4c(C)cc(F)cc34)ncn2)ccc1C(=O)O` [Example 127, 2-Butoxy-4-{6-[2-(5-fluoro-2,7-dimethyl-benzo[b]thiophen-3-yl)-ethylamino]-pyrimidin-4-yl}-benzoic acid] the IC50 was 0.106 µM.
With `Cc1oc2ccccc2c1CCNc1cc(-c2ccc(C(=O)O)c(SC3CCC3)c2)ncn1` [Example 129, 2-Cyclobutylsulfanyl-4-{6-[2-(2-methyl-benzofuran-3-yl)-ethylamino]-pyrimidin-4-yl}-benzoic acid] the IC50 was 0.015 µM.
`Cc1sc2c(C)cccc2c1CCNc1cc(-c2ccc(C(=O)O)c(SC3CCC3)c2)ncn1` [Example 130, 2-Cyclobutylsulfanyl-4-{6-[2-(2,7-dimethyl-benzo[b]thiophen-3-yl)-ethylamino]-pyrimidin-4-yl}-benzoic acid] showed an IC50 of 0.02 µM.
For `Cc1sc2c(C)cccc2c1CCNc1cc(-c2ccc(C(=O)O)c(SC3COC3)c2)ncn1` [Example 131, 4-{6-[2-(2,7-Dimethyl-benzo[b]thiophen-3-yl)-ethylamino]-pyrimidin-4-yl}-2-(oxetan-3-ylsulfanyl)-benzoic acid], the IC50 was 0.022 µM.
Compound `O=C(O)c1ccc(-c2cc(NCCc3csc4ccccc34)ncn2)cc1OC1CCC1` [Example 132, 4-[6-(2-Benzo[b]thiophen-3-yl-ethylamino)-pyrimidin-4-yl]-2-cyclobutoxy-benzoic acid] has an IC50 of 0.167 µM.
Work on `COc1cc(Cl)cc2c(CCNc3cc(-c4ccc(C(=O)O)c(OC5CCC5)c4)ncn3)c(C)oc12` [Example 133, 4-{6-[2-(5-Chloro-7-methoxy-2-methyl-benzofuran-3-yl)-ethylamino]-pyrimidin-4-yl}-2-cyclobutoxy-benzoic acid] yielded an IC50 of 0.068 µM.
In the case of `COc1ccc(F)c2c(CCNc3cc(-c4ccc(C(=O)O)c(OC5CCC5)c4)ncn3)c(C)sc12` [Example 134, 2-Cyclobutoxy-4-{6-[2-(4-fluoro-7-methoxy-2-methyl-benzo[b]thiophen-3-yl)-ethylamino]-pyrimidin-4-yl}-benzoic acid], the IC50 is reported as 0.046 µM.
